pKi: −log10 of the molar value. Where a name gives a salt, the structure may show the parent alone.
Target: T1, human cloned 5-HT6 receptors (Homo sapiens, UniProt P50406)
T1 construct: expressed in transfected cells; host or cells: HeLa cells
Assay: 5-HT6 binding affinity, [3H]-LSD displacement
Settings: membranes of Hela cells expressing human cloned 5-HT6 receptors; [3H]-LSD 3.0 nM; 120 minutes at room temperature
Method: The affinity of test compounds for the serotonin 5-HT6 receptor was evaluated in the following manner. Cultured Hela cells expressing human cloned 5-HT6 receptors were harvested and centrifuged at low speed (1,000×g) for 10.0 minutes to remove the culture media. The harvested cells were suspended in half volume of fresh physiological phosphate buffered saline solution and recentrifuged at the same speed. This operation was repeated. The collected cells were then homogenized in ten volumes of 50 mM Tris.HCl (pH 7.4) and 0.5 mM EDTA. The homogenate was centrifuged at 40,000×g for 30.0 min and the precipitate was collected. The obtained pellet was resuspended in 10 volumes of Tris.HCl buffer and recentrifuged at the same speed. The final pellet was suspended in a small volume of Tris.HCl buffer and the tissue protein content was determined in aliquots of 10-25 μl volumes. […] The volume of the suspended cell membranes was adjusted to give a tissue protein concentration of 1.0 mg/ml of suspension. The prepared membrane suspension (10 times concentrated) was aliquoted in 1.0 ml volumes and stored at −70° C. until used in subsequent binding experiments.
The bound complex caught on the filter disk was allowed to air dry and the radioactivity is measured in a Packard TopCount® equipped with six photomultiplier detectors, after the addition of 40.0 μl Microscint®-20 scintillant to each shallow well. The unifilter plate was heat-sealed and counted in a PackardTopCount® with a tritium efficiency of 31.0%.
Specific binding to the 5-HT6 receptor was defined as the total radioactivity bound less the amount bound in the presence of 10.0 μM unlabeled methiothepin. Binding in the presence of varying concentrations of test compound was expressed as a percentage of specific binding in the absence of test compound. The results were plotted as log % bound versus log concentration of test compound. […] A linear regression line of data points was plotted, from which the IC50 value is determined and the Ki value is determined based upon the following equation: Ki=IC50/(1+L/KD) where L was the concentration of the radioactive ligand used and KD is the dissociation constant of the ligand for the receptor, both expressed in nM.

T1 sequence (P50406 whole entry): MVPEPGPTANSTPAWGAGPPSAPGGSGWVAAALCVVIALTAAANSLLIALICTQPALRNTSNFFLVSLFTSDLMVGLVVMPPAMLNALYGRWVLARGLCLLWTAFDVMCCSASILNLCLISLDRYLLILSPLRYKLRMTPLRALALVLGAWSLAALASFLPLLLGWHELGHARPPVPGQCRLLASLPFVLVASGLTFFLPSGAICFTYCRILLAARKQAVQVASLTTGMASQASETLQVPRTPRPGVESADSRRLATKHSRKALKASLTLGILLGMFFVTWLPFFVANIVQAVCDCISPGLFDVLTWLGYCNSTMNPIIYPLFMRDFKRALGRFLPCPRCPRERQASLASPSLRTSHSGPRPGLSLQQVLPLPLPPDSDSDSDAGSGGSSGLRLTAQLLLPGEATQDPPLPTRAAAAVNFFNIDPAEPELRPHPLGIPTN

CCCCNCCOc1ccc2[nH]nc(S(=O)(=O)c3cccc4ccccc34)c2c1 [Example 34, Butyl-{2-[3-(naphthalene-1-sulfonyl)-1H-indazol-5-yloxy]-ethyl}-amine]
pKi: 8.00 to 11.00

CCNCCCCOc1ccc2[nH]nc(S(=O)(=O)c3cccc4ccccc34)c2c1 [Example 63]
pKi: 8.00 to 11.00

Cn1nc(S(=O)(=O)c2cccc3ccccc23)c2cccc(OCCN3CCCCC3)c21 [Example 99]
pKi: 8.00 to 11.00

CCN(C)CCOc1ccc2[nH]nc(S(=O)(=O)c3cccc4ccccc34)c2c1 [Example 29, Ethyl-methyl-{2-[3-(naphthalene-1-sulfonyl)-1H-indazol-5-yloxy]-ethyl}-amine]
pKi: 8.00 to 11.00

CC(C)NCCOc1ccc2[nH]nc(S(=O)(=O)c3ccccc3)c2c1 [Example 6, [2-(3-Benzenesulfonyl-1H-indazol-5-yloxy)-ethyl]-isopropyl-amine]
pKi: 7.60 to 7.96

CCN(C)CCOc1ccc2[nH]nc(S(=O)(=O)c3ccccc3)c2c1 [Example 2, [2-(3-Benzenesulfonyl-1H-indazol-5-yloxy)-ethyl]-ethyl-methyl-amine]
pKi: < 7.35

Cn1nc(S(=O)(=O)c2ccccc2)c2cccc(OCCN3CCCC3)c21 [Example 104]
pKi: 7.46 to 7.59

NCCOc1cccc2[nH]nc(S(=O)(=O)c3cccc4ccccc34)c12 [Example 141]
pKi: 7.60 to 7.96

CCCN(C)CCCCOc1ccc2[nH]nc(S(=O)(=O)c3cccc4ccccc34)c2c1 [Example 65]
pKi: 8.00 to 11.00

O=S(=O)(c1cccc2ccccc12)c1n[nH]c2c(OCCN3CCCC3)cc(F)cc12 [Example 118]
pKi: 8.00 to 11.00

COc1cc(OCCN2CCCCC2)c2c(c1)c(S(=O)(=O)c1cccc3ccccc13)nn2Cc1cccc(Cl)c1 [Example 122]
pKi: 8.00 to 11.00

CCN(CC)CCCOc1cccc2c(S(=O)(=O)c3cccc4ccccc34)nn(Cc3cccc(Cl)c3)c12 [Example 131]
pKi: 7.60 to 7.96

CN(C)CCOc1ccc2c(S(=O)(=O)c3cccc4ccccc34)n[nH]c2c1 [Example 148]
pKi: < 7.35

CCN(C)CCOc1ccc2c(c1)c(S(=O)(=O)c1cccc3ccccc13)nn2C [Example 42, Ethyl-methyl-{2-[1-methyl-3-(naphthalene-1-sulfonyl)-1H-indazol-5-yloxy]-ethyl}-amine]
pKi: 8.00 to 11.00

CCCCNCCOc1cccc2c(S(=O)(=O)c3cccc4ccccc34)nn(C)c12 [Example 98]
pKi: 7.46 to 7.59

CN(C)CCc1cccc2c(S(=O)(=O)c3ccccc3)n[nH]c12 [Example 171, N,N-Dimethyl-N-{2-[3-(phenylsulfonyl)-1H-indazol-7-yl]ethyl}amine hydrochloride]
pKi: 8.00 to 11.00

CN(C)CCCOc1cccc2c(S(=O)(=O)c3cccc4ccccc34)nn(Cc3cccc(Cl)c3)c12 [Example 130]
pKi: < 7.35

O=S(=O)(c1ccccc1)c1nn(Cc2cccc(Cl)c2)c2c(OCCN3CCCC3)cccc12 [Example 86]
pKi: 7.46 to 7.59

CCN(CC)CCOc1cc(F)cc2c(S(=O)(=O)c3cccc4ccccc34)n[nH]c12 [Example 116]
pKi: 7.60 to 7.96

COc1cc(OCCN2CCCC2)c2c(c1)c(S(=O)(=O)c1cccc3ccccc13)nn2Cc1cccc(Cl)c1 [Example 123]
pKi: < 7.35

CNCCOc1ccc2c(S(=O)(=O)c3cccc4ccccc34)n[nH]c2c1 [Example 147, N-Methyl-2-{[3-(1-naphthylsulfonyl)-1H-indazol-6-yl]oxy}ethanamine Hydrochloride]
pKi: 7.60 to 7.96

O=S(=O)(c1cccc2ccccc12)c1n[nH]c2ccc(OCCNC3CC3)cc12 [Example 36, Cyclopropyl-{2-[3-(naphthalene-1-sulfonyl)-1H-indazol-5-yloxy]-ethyl}-amine]
pKi: 8.00 to 11.00

CC1CN(Cc2ccc3[nH]nc(S(=O)(=O)c4cccc5ccccc45)c3c2)CCN1 (stereo not drawn) [Example 197]
pKi: 8.00 to 11.00

CCN(CC)CCC(=O)Nc1cccc2c(S(=O)(=O)c3cccc4ccccc34)n[nH]c12 [Example 166, 3-Diethylamino-N-[3-(naphthalene-1-sulfonyl)-1H-indazol-7-yl]-propionamide hydrochloride]
pKi: 7.46 to 7.59

CCN(CC)CCOc1ccc2[nH]nc(S(=O)(=O)c3ccccc3)c2c1 [Example 5, [2-(3-Benzenesulfonyl-1H-indazol-5-yloxy)-ethyl]-diethyl-amine]
pKi: 7.35 to 7.44

CCNCCOc1cccc2c(S(=O)(=O)c3cccc4ccccc34)n[nH]c12 [Example 79]
pKi: 7.60 to 7.96

CNCCc1cccc2c(S(=O)(=O)c3ccccc3)n[nH]c12 [Example 173, N-Methyl-N-{2-[3-(phenylsulfonyl)-1H-indazol-7-yl]ethyl}amine trifluoroacetate]
pKi: 8.00 to 11.00

CCNCCOc1cccc2c(S(=O)(=O)c3ccccc3)nn(C)c12 [Example 102]
pKi: 7.46 to 7.59

CCN(CC)CCOc1cccc2c(S(=O)(=O)c3ccccc3)nn(C)c12 [Example 103]
pKi: < 7.35

CNCCOc1ccc2[nH]nc(S(=O)(=O)c3cccc4ccccc34)c2c1 [Example 31, Methyl-{2-[3-(naphthalene-1-sulfonyl)-1H-indazol-5-yloxy]-ethyl}-amine]
pKi: 8.00 to 11.00

NCCCCc1ccc2[nH]nc(S(=O)(=O)c3cccc4ccccc34)c2c1 [Example 189, {4-[3-(Naphthylsulfonyl)-1H-indazol-5-yl]butyl}amine hydrochloride]
pKi: 8.00 to 11.00

O=S(=O)(c1cccc2ccccc12)c1n[nH]c2ccc(CN3CCNCC3)cc12 [Example 195, 3-(1-Naphthylsulfonyl)-5-(piperazin-1-ylmethyl)-1H-indazole]
pKi: 8.00 to 11.00

CCNCCOc1cc(F)cc2c(S(=O)(=O)c3cccc4ccccc34)nn(Cc3cccc(Cl)c3)c12 [Example 108]
pKi: < 7.35

O=S(=O)(c1ccccc1)c1n[nH]c2c(OCCN3CCCC3)cccc12 [Example 92]
pKi: 8.00 to 11.00

O=S(=O)(c1ccccc1)c1n[nH]c2ccc(CCCNC3CC3)cc12 [Example 178, N{3-[3-(Phenylsulfonyl)-1H-indazol-5-yl]propyl}cyclopropanamine trifluoroacetate]
pKi: 7.60 to 7.96

CC(C)NCCOc1ccc2c(c1)c(S(=O)(=O)c1cccc3ccccc13)nn2Cc1ccccc1 [Example 49, {2-[1-Benzyl-3-(naphthalene-1-sulfonyl)-1H-indazol-5-yloxy]-ethyl}-isopropyl-amine]
pKi: 7.46 to 7.59

O=S(=O)(c1ccccc1)c1n[nH]c2c(OCCN3CCCCC3)cccc12 [Example 93]
pKi: 8.00 to 11.00

C[C@@H]1CN(Cc2ccc3[nH]nc(S(=O)(=O)c4cccc5ccccc45)c3c2)CCN1 [Example 200]
pKi: 8.00 to 11.00

CCCCNCCOc1cccc2c(S(=O)(=O)c3ccccc3)n[nH]c12 [Example 91]
pKi: 8.00 to 11.00

CCNCCOc1ccc2[nH]nc(S(=O)(=O)c3ccccc3)c2c1 [Example 4, [2-(3-Benzenesulfonyl-1H-indazol-5-yloxy)-ethyl]-ethyl-amine]
pKi: 8.00 to 11.00

O=S(=O)(c1ccccc1)c1n[nH]c2ccc(OCCNC3CC3)cc12 [Example 8, [2-(3-Benzenesulfonyl-1H-indazol-5-yloxy)-ethyl]-cyclopropyl-amine]
pKi: 7.46 to 7.59

CNCCOc1cccc2c(S(=O)(=O)c3ccccc3)nn(Cc3cccc(Cl)c3)c12 [Example 82]
pKi: 7.60 to 7.96

CN(C)CCOc1cc(F)cc2c(S(=O)(=O)c3cccc4ccccc34)nn(Cc3cccc(Cl)c3)c12 [Example 109]
pKi: 7.60 to 7.96

Cn1nc(S(=O)(=O)c2ccccc2)c2cccc(OCCN3CCCCC3)c21 [Example 105]
pKi: < 7.35

CCNCCOc1cccc2c(S(=O)(=O)c3ccccc3)nn(Cc3cccc(Cl)c3)c12 [Example 83]
pKi: 7.46 to 7.59

Source: patent US7723329B2, “Substituted-3-sulfonylindazole derivatives as 5-hydroxytryptamine-6 ligands” (Wyeth LLC, priority 2005, dated 2010)
